Values of other authors, collected in article PMC11354262 (International Journal of Molecular Sciences, 2024).

Key:
[1] = hydrolysis by enzymes in intestine and liver

CCCCCCCCCCCCCCCC(=O)NCCO [PEA, Palmitoylethanolamide]
lipid half-life [1]: about 25 min | logarithm of partition coefficient (log P): > 5 | solubility in water: practically insoluble in water
